Experimental data reported in article PMC3606823 (Journal of biomolecular screening, 2012).
Where two headings read alike, the source gives them in different places.

How the values were obtained:
[1] = molecular target: T1, human DDAH1 (Homo sapiens, UniProt O94760); experiment: Colorimetric L-citrulline assay with ADMA as substrate; type: biochemical
[2] = system: primary microvascular endothelial cells (HMVECs); experiment: L-citrulline assay in cell lysates; type: cell-based; conditions: 1 mM L-Arginine for 24 hours vs vehicle, p<0.05
[3] = molecular target: T1, human DDAH1; experiment: Secondary fluorimetric CPM assay with SMTC as substrate; type: biochemical; conditions: for IC50: inhibition of human DDAH1, CPM assay, 30 nM DDAH, 100 μM SMTC; for time-dependent inhibition (mode of inhibition): 50 μM compound, 30 nM enzyme, fluorometric CPM assay; for confirmation as DDAH inhibitor in the validation assay: known DDAH inhibitors
[4] = molecular target: T1, human DDAH1; conditions: cited from earlier work
[5] = system: DDAH; conditions: enzyme isolated from rat kidney homogenates; cited from earlier work
[6] = screening with recombinant human DDAH1, assay format not given

T1 sequence (O94760 whole entry): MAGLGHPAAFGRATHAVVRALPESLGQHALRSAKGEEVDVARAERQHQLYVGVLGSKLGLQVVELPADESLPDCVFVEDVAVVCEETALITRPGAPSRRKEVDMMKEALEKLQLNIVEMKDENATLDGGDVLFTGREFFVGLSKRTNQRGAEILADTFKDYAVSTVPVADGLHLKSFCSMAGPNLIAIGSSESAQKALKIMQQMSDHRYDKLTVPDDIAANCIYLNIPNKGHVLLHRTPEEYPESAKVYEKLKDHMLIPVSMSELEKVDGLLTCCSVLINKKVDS

## CN(C)C(N)=NCCC[C@H](N)C(=O)O [ADMA, Asymmetric Dimethylarginine]
[1]
  Km: 180 µM
[1]; ADMA as substrate, 0.3 μM DDAH, 500 μM ADMA, 4 hours at 37°C
  kcat: ~ 0.7 min^−1

## Cn1c(=O)c2[nH]cnc2n(C)c1=O.[CH2-]C(Cc1cccc2cc(C(=O)O)c(=O)oc12)OC.[Hg+2].[OH-] (centres unmarked) [Cumertilin]
[1]; at 25μM, screening with recombinant human DDAH1
  inhibition: 100%

## N=C(N)NCCC[C@H](N)C(=O)O [L-Arginine]
[2]
  amount of intracellular L-citrulline: increased the amount of intracellular L-citrulline significantly

## CN=c1nc(-c2ccccc2)n(-c2ccccc2)s1 [SCH-202676]
[3]
  IC50: 13.3 µM

## CSC(N)=NCCC[C@H](N)C(=O)O [SMTC, S-methyl-L-thiocitrulline]
[4]; SMTC as substrate at 100 μM
  kcat: ~ 1 min^−1
[4]; SMTC as substrate
  Km: 1 µM

## C[CH2][Hg][S]c1ccccc1C(=O)[O-].[Na+] [Thimerosal]
[1]; [6]
  IC50: 0.46 µM

## O=C(O)c1cc[c]([Hg][Cl])cc1 [chloromercuribenzoate, 4-chloromercuribenzoic acid]
[3]
  time-dependent inhibition (mode of inhibition): progressive inhibition
  confirmation as DDAH inhibitor in the validation assay: confirmed
[5]
  sensitivity of the enzyme to the compound: sensitive

## O=c1c2ccccc2[se]n1-c1ccccc1 [ebselen]
[3]
  confirmation as DDAH inhibitor in the validation assay: confirmed
[1]
  IC50: 3.9 µM

## [Cl][Hg][Cl] [mercury chloride]
[5]
  sensitivity of the enzyme to the compound: sensitive

## CC(=O)[O][Hg][c]1ccccc1 [phenylmercuric acetate]
[3]
  time-dependent inhibition (mode of inhibition): progressive inhibition
  IC50: < 0.78 µM
[1]; [6]
  IC50: < 0.78 µM
